# How the values were obtained:
# Assay type in all cases: biochemical
# top2α [1] = biological target: T1, top2α (Homo sapiens, UniProt P11388); experiment: top2α-mediated pBR322 DNA relaxation assay; also cleavage and religation assays and TARDIS in cells
# T1 construct: gene TOP2A
# top1 [2] = biological target: T2, top1 (Homo sapiens, UniProt P11387); experiment: top1-mediated DNA relaxation assay; also top1-mediated DNA cleavage and TARDIS in cells
# T2 sequence (P11387 2-765): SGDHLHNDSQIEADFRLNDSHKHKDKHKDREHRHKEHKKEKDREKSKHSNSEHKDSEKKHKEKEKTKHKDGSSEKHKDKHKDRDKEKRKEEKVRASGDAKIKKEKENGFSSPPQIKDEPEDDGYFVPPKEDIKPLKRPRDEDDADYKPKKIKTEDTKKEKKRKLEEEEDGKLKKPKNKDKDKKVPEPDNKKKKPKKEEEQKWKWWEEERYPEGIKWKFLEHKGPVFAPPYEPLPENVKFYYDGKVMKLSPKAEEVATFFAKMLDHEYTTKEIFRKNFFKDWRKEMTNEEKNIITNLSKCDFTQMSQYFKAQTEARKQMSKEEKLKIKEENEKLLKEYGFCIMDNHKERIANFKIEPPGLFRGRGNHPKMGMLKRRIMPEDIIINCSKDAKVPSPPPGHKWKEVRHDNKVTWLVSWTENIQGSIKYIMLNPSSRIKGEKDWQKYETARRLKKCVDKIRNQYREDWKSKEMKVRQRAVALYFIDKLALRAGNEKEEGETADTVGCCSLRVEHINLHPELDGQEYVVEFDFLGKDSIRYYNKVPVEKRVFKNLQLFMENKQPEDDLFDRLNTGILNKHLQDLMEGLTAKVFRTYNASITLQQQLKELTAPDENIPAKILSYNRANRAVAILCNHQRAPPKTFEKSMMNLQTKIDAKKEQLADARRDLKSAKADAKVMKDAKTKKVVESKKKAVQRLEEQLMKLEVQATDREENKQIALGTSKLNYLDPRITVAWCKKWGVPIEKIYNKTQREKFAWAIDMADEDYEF
# top2β = biological target: T3, top2β (Homo sapiens, UniProt Q02880); experiment: purified top2β-mediated pBR322 DNA cleavage assay
# T3 construct: gene TOP2B
# top2α [3] = biological target: T1, top2α; experiment: top2α-mediated pBR322 DNA relaxation assay at […]
# top1 [4] = biological target: T2, top1; experiment: top1-mediated cleavage of […]'-end-labeled 117-bp oligonucleotide
# T1 sequence (P11388 whole entry): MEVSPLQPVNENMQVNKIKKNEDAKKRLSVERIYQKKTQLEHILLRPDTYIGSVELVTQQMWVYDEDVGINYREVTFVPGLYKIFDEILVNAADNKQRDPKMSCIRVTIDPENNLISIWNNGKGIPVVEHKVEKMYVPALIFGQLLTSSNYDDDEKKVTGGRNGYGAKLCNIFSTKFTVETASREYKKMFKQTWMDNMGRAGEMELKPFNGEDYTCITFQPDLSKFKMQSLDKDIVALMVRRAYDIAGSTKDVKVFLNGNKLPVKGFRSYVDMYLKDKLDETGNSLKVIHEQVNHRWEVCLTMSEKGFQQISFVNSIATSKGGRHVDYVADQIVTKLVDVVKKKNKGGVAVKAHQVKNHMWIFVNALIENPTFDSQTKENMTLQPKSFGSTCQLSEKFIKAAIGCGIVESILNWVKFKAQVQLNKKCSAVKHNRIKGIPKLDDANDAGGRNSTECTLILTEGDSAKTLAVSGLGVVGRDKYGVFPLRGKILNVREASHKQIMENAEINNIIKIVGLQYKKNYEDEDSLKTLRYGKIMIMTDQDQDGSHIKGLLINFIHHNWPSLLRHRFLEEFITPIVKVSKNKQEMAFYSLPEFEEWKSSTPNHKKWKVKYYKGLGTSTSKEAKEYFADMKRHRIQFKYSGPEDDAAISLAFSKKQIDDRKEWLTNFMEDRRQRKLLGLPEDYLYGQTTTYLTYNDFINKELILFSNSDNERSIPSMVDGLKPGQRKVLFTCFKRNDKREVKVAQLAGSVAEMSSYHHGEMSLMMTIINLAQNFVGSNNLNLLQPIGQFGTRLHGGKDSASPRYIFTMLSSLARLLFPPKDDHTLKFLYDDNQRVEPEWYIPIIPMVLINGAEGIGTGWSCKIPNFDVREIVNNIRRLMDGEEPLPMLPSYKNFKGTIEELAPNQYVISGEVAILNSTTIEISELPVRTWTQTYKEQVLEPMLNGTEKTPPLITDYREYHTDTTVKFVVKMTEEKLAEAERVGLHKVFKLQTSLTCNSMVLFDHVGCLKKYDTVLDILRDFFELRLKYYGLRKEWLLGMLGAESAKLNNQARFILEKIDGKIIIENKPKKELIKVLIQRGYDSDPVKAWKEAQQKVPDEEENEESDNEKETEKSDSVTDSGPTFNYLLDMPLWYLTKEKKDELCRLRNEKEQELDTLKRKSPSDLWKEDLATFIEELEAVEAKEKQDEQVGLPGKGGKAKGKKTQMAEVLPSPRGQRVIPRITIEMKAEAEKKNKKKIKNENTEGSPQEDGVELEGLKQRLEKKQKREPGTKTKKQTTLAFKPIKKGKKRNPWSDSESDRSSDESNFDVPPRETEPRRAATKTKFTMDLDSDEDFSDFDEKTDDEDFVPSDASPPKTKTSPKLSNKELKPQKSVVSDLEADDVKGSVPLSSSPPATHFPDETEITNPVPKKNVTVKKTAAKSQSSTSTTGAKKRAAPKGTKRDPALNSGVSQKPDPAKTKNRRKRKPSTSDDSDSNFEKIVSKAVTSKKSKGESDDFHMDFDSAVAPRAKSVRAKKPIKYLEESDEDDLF
# T3 sequence (Q02880 2-1626): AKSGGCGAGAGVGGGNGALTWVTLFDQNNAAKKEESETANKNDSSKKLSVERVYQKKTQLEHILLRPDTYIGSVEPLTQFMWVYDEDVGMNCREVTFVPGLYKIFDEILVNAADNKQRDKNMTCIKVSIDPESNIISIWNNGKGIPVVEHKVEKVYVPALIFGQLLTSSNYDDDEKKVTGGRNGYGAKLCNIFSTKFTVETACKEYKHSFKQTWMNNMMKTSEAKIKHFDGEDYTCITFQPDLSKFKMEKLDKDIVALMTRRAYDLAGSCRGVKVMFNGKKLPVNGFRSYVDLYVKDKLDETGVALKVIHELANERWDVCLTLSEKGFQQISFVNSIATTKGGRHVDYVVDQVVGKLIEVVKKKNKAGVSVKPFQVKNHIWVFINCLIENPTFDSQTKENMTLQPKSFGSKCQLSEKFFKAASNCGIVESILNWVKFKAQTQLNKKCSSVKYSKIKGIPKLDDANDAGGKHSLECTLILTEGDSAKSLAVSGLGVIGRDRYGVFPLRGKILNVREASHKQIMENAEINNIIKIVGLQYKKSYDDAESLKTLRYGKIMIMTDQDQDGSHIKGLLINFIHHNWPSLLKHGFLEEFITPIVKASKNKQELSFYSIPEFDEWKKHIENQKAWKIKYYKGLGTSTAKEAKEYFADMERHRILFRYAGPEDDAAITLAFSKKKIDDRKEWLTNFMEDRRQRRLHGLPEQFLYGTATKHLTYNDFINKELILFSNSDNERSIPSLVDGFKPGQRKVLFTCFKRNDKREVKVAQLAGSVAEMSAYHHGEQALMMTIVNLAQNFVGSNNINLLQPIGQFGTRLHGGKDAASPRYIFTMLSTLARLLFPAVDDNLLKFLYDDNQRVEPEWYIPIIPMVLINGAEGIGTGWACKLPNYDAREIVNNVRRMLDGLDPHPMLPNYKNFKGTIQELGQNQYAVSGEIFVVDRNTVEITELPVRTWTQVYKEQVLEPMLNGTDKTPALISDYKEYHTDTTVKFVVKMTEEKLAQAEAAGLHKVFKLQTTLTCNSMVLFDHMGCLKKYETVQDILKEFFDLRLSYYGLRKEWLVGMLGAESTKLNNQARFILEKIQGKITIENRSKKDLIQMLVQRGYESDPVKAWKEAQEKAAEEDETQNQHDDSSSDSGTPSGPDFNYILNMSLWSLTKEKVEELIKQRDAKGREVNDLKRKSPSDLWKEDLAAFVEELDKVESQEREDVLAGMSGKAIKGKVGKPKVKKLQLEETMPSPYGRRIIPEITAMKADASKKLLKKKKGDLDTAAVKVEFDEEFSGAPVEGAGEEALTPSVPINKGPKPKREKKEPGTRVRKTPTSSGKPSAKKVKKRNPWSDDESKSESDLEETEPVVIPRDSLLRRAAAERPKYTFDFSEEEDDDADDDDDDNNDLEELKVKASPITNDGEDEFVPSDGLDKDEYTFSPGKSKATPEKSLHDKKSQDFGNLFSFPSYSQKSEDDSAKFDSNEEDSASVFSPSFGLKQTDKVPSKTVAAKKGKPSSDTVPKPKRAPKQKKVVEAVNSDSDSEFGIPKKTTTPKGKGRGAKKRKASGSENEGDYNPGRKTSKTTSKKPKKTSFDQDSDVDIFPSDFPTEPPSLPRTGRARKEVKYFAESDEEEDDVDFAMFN
smiles,measurement,setting,value
COc1ccc2c(c[n+]3c4c2ccc2c5c(cc(c24)CC3)OCO5)c1OC(=O)c1ccccc1 [A35],IC50,top2α [1],0.56 µM
same,IC50,top1 [2],22.1 µM
"COc1cc([C@@H]2c3cc4c(cc3[C@@H](O[C@@H]3O[C@@H]5CO[C@@H](C)O[C@H]5[C@H](O)[C@H]3O)[C@H]3COC(=O)[C@H]23)OCO4)cc(OC)c1O [VP16, etoposide]",purified top2β-mediated pBR322 DNA cleavage assay,top2β,A35 did not lead to DNA breakage mediated by top2β and the positive (VP16) control induced significant DNA breakage
same,top2α-mediated pBR322 DNA relaxation assay at 10 μM,top2α [3],inhibitory activity of A35 on top top2α was much higher than that of etoposide (VP16)
"CC[C@@]1(O)C(=O)OCc2c1cc1n(c2=O)Cc2cc3c(CN(C)C)c(O)ccc3nc2-1 [TPT, topotecan]",top1-mediated cleavage of 3'-end-labeled 117-bp oligonucleotide,top1 [4],the DNA breakage effect was weak and far less than the positive control TPT (topotecan)
